Measured values taken from US7166738B2, “Non-nucleoside reverse transcriptase inhibitors” (Roche Palo Alto LLC, priority 2004, dated 2007).
Counter-ions that a name gives are not always drawn. Like-named read-outs stand apart in the source and are kept apart here.

How the values were obtained:
HIV-1 RT = HIV-1 RT (Human immunodeficiency virus type 1 group M subtype B, UniProt P03366); assay: HIV Reverse Transcriptase Assay: Inhibitor IC50 Determination; type: biochemical
Method: HIV Reverse Transcriptase Assay: Inhibitor IC50 Determination
HIV-1 RT assay was carried out in 96-well Millipore MultiScreen MADVNOB50 plates using purified recombinant enzyme and a poly(rA)/oligo(dT)16 template-primer in a total volume of 50 μL. The assay constituents were 50 mM Tris/HCl, 50 mM NaCl, 1 mM EDTA, 6 mM MgCl2, 5 μM dTTP, 0.15 μCi [^3H] dTTP, 5 μg/ml poly (rA) pre annealed to 2.5 μg/ml oligo (dT)16 and a range of inhibitor concentrations in a final concentration of 10% DMSO. Reactions were initiated by adding 4 nM HIV-1 RT and after incubation at 37° C. for 30 min, they were stopped by the addition of 50 μl ice cold 20% TCA and allowed to precipitate at 4° C. for 30 min. The precipitates were collected by applying vacuum to the plate and sequentially washing with 3×200 μl of 10% TCA and 2×200 μl 70% ethanol. Finally, the plates were dried and radioactivity counted in a Packard TopCounter after the addition of 25 μl scintillation fluid per well. IC50's were calculated by plotting % inhibition versus log10 inhibitor concentrations.

HIV = assay: Anti-viral Assay (method of Pauwels et al.); type: cell-based; conditions: Human immunodeficiency virus 1
Method: Anti-viral assays were carried out by the method described by R. E. Pauwels et al. J. Virol. Methods 1988 20(4):309–322.

[1] = purified recombinant enzyme, poly(rA)/oligo(dT)16 template-primer, 37° C. 30 min, read-out: RT inhibition

Structure (SMILES)	IC50 (HIV-1 RT)	IC50 (HIV-1 RT; [1])	melting point	EC50 (HIV)
CCC(=O)NS(=O)(=O)c1ccc(NC(=O)Cc2ccc(Br)c(Oc3cc(Cl)cc(C#N)c3)c2F)c(Cl)c1 [Compound I-63, 2-[4-Bromo-3-(3-chloro-5-cyano-phenoxy)-2-fluoro-phenyl]-N-(2-chloro-4-propionylsulfamoyl-phenyl)-acetamide; sodium salt]	5.8 nM			
Cc1ccc(CC(=O)Nc2ccc(S(N)(=O)=O)cc2Cl)c(F)c1Oc1cc(Cl)cc(C#N)c1 [Compound I-83, 2-[3-(3-Chloro-5-cyano-phenoxy)-2-fluoro-4-methyl-phenyl]-N-(2-chloro-4-sulfamoyl-phenyl)-acetamide]		8.1 nM	228.9 to 230.6 °C	0.9 nM
Cc1ccc(CC(=O)Nc2ccc(S(N)(=O)=O)cc2Cl)c(F)c1Oc1cc(C#N)cc(C(F)F)c1 [Compound I-84, N-(2-Chloro-4-sulfamoyl-phenyl)-2-[3-(3-cyano-5-difluoromethyl-phenoxy)-2-fluoro-4-methyl-phenyl]-acetamide]		14 nM	218 to 218.7 °C	0.4 nM
N#Cc1cc(Cl)cc(Oc2c(Br)ccc(CC(=O)Nc3ccc(S(N)(=O)=O)cc3Cl)c2F)c1 [Compound I-109, 2-[4-Bromo-3-(3-chloro-5-cyano-phenoxy)-2-fluoro-phenyl]-N-(2-chloro-4-sulfamoyl-phenyl)-acetamide]	13.6 nM		165 to 166.6 °C	1.3 nM
CC(C)[C@H](N)C(=O)NS(=O)(=O)c1ccc(NC(=O)Cc2ccc(Cl)c(Oc3cc(Cl)cc(C#N)c3)c2F)c(Cl)c1.[Na] [Compound I-127, N-[4-((S)-2-Amino-3-methyl-butyrylsulfamoyl)-2-chloro-phenyl]-2-[4-chloro-3-(3-chloro-5-cyano-phenoxy)-2-fluoro-phenyl]-acetamide; sodium salt]	5.9 nM		219.4 to 220.2 °C	
CCCC(=O)NS(=O)(=O)c1ccc(NC(=O)Cc2ccc(Cl)c(Oc3cc(Cl)cc(C#N)c3)c2F)c(Cl)c1.[Na] [Compound I-138, N-(4-Butyrylsulfamoyl-2-chloro-phenyl)-2-[4-chloro-3-(3-chloro-5-cyano-phenoxy)-2-fluoro-phenyl]-acetamide; sodium salt]	4.5 nM		157.2 to 157.9 °C	
CCc1ccc(CC(=O)Nc2ccc(S(N)(=O)=O)cc2Cl)cc1Oc1cc(C#N)cc(C(F)F)c1 [Compound I-140, N-(2-Chloro-4-sulfamoyl-phenyl)-2-[3-(3-cyano-5-difluoromethyl-phenoxy)-4-ethyl-phenyl]-acetamide]		21 nM	191.8 to 192.5 °C	0.4 nM
N#Cc1cc(Oc2c(Br)ccc(CC(=O)Nc3ccc(S(N)(=O)=O)cc3Cl)c2F)cc(C(F)F)c1 [Compound I-165, 2-[4-Bromo-3-(3-cyano-5-difluoromethyl-phenoxy)-2-fluoro-phenyl]-N-(2-chloro-4-sulfamoyl-phenyl)-acetamide]		21 nM	205.4 to 207.7 °C	0.4 nM
Cc1cc(S(N)(=O)=O)ccc1NC(=O)Cc1ccc(Br)c(Oc2cc(C#N)cc(C(F)F)c2)c1F [Compound I-169, 2-[4-Bromo-3-(3-cyano-5-difluoromethyl-phenoxy)-2-fluoro-phenyl]-N-(2-methyl-4-sulfamoyl-phenyl)-acetamide]		27 nM	223.9 to 225 °C	0.4 nM
CCc1ccc(CC(=O)Nc2ccc(S(N)(=O)=O)cc2Cl)c(F)c1Oc1cc(C#N)cc(C(F)F)c1 [Compound I-179, N-(2-Chloro-4-sulfamoyl-phenyl)-2-[3-(3-cyano-5-difluoromethyl-phenoxy)-4-ethyl-2-fluoro-phenyl]-acetamide]		7.4 nM	239.6 to 240.7 °C	0.4 nM
CCc1ccc(CC(=O)Nc2ccc(S(N)(=O)=O)cc2C)c(F)c1Oc1cc(C#N)cc(C(F)F)c1 [Compound I-180, 2-[3-(3-Cyano-5-difluoromethyl-phenoxy)-4-ethyl-2-fluoro-phenyl]-N-(2-methyl-4-sulfamoyl-phenyl)-acetamide]		9.1 nM	237.6 to 238.4 °C	
N#Cc1cc(Cl)cc(Oc2c(Cl)ccc(CC(=O)Nc3ccc(S(=O)(=O)NC(=O)CCC(=O)O)cc3Cl)c2F)c1 [Compound I-188, 4-(3-Chloro-4-{2-[4-chloro-3-(3-chloro-5-cyano-phenoxy)-2-fluoro-phenyl]-acetylamino}-benzenesulfonylamino)-4-oxo-butyric acid]			143.4 to 144 °C	
COc1ccc(CC(=O)Nc2ccc(S(N)(=O)=O)cc2Cl)c(F)c1Oc1cc(Cl)cc(C#N)c1 [Compound I-190, 2-[3-(3-Chloro-5-cyano-phenoxy)-2-fluoro-4-methoxy-phenyl]-N-(2-chloro-4-sulfamoyl-phenyl)-acetamide]			212 to 212.8 °C	
COc1ccc(CC(=O)Nc2ccc(S(N)(=O)=O)cc2C)c(F)c1Oc1cc(Cl)cc(C#N)c1 [Compound I-191, 2-[3-(3-Chloro-5-cyano-phenoxy)-2-fluoro-4-methoxy-phenyl]-N-(2-methyl-4-sulfamoyl-phenyl)-acetamide]			239.9 to 240.8 °C	
